In patent US10322143B2, “Inhibitors of ADAMTS4 or ADAMTS5 for use in preventing or treating cardiac remodeling and chronic heart failure” (Universitetet i Oslo, priority 2013, dated 2019):

Assays:
ADAMTS4 [1] = target: ADAMTS4 (Homo sapiens (Human), UniProt O75173); settings: previous studies; cited from earlier work
MT4-MMP mRNA = MT4-MMP mRNA level (qRT-PCR) in MI rats; assay type: in vivo, rat; settings: PPS-treatment
Method: At day 0 to 3 (median 2) after surgery, infarct size was quantified by echocardiography using the Vevo2100 system (Visualsonics Inc, Canada) and magnetic resonance imaging (MRi) using a 9.4 T/210 mm/ASR horizontal bore magnet (Agilent Technologies, Inc., USA). Initially, echocardiography was performed to select moderate to large infarcts ranging approximately 40 to 50%. Thereafter, infarct sizes were exactly measured by late-enhancement gadolinium MRi analyses (Bohl S., et al. American Journal of Physiology, 2009; 296 (4): H1200-H1208) and stratified into small infarcts (stratum 1: <43%, stratum 2: 43-48%), and large infarcts (stratum 3: 48-53%, stratum 4: >53%). The rats in each MI stratum and sham group were randomized to receive intervention or control treatment. The intervention group was treated with 6 mg/kg of sodium PPS (Interfarm AS, Norway), while the control group received vehicle (0.9% NaCl), both injected subcutaneously every third day starting from post-operative day 8-10.
The mRNA levels of the ADAMTS versicanases ADAMTS1, -4, -5, -8, and -20 (Shiomi T, et al. Pathology International 2010; 60(7):477-96), versican, aggrecan, syndecan-4, tissue inhibitor metalloprotease (TIMP)-3, and membrane-type (MT)4-MMP, were quantified in rat left ventricle by qRT-PCR, as previously described in Example 1.

ADAMTS5 = ADAMTS5 (Homo sapiens (Human), UniProt Q9UNA0); settings: previous studies; cited from earlier work
ADAMTS4 [2] = target: ADAMTS4 (Rattus norvegicus (Rat), UniProt Q9ESP7); experiment: ADAMTS4 protein level in myocardial protein fractions (immunoblotting), aortic banding rats; assay type: in vivo; settings: AB-rats after PPS-treatment
Method: Three days after AB, rats were stratified by the gradient over the stenosis to ensure similar degree of cardiac stress. Two and two stratified rats were randomized to either 6 mg/kg of the sulfated polysaccharide sodium pentosan polysulfate (PPS) (Interfarm AS, Norway) or vehicle (0.9% NaCl) injected subcutaneously every third day. […] Six weeks after AB or sham operation, the rats were examined by echocardiography and postmortem analysis, performed by experienced investigators (IS, JMA) blinded to treatment group.
Proteins from rat myocardium were extracted as previously described (Didangelos et al. J Biol Chem 2012. 287(23):19341-5). […]
Protein concentrations were measured using the Micro BCA Protein Assay Kit (Pierce/Thermo Scientific, IL). […]
Membranes were blocked in 5% non-fat dry-milk (170-6404, BioRad) overnight. […] Primary antibodies used were against ADAMTS4 (PA1-1750, Thermo Pierce Scientific, IL), versican full length (sc-25831, Santa Cruz Biotechnology, CA) and versican fragments displaying the neo-epitope DPEEAE (ab19345, Abcam, Cambrigde, UK) resulting from ADAMTS cleavage by ADAMTS1/4 (Sandy J D et al. J Biol Chem 2001. 276(16):13372-8; Didangelos A et al. supra), and quantified by ImageJ.

Sequence of ADAMTS5 (Q9UNA0 262-930, species assumed): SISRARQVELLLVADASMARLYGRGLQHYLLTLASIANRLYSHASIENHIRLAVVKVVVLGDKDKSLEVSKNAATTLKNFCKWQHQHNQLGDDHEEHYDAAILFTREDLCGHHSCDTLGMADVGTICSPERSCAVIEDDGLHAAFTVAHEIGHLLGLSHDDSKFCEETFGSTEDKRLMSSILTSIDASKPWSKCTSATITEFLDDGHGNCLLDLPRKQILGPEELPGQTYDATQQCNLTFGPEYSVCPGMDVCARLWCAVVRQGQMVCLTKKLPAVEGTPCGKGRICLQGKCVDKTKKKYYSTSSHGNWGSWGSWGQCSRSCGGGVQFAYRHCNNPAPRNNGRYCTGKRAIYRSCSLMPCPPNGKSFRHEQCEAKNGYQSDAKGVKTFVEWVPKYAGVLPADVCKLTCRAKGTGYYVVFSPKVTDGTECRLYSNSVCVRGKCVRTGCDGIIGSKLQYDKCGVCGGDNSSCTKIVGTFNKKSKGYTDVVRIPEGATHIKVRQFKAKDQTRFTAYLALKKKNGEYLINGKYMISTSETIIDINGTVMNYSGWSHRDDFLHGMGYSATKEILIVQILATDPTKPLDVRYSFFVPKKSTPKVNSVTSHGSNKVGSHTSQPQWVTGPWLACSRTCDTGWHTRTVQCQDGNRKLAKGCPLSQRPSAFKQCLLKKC
Sequence of ADAMTS4 (Homo sapiens (Human), UniProt O75173) (O75173 213-837, species assumed): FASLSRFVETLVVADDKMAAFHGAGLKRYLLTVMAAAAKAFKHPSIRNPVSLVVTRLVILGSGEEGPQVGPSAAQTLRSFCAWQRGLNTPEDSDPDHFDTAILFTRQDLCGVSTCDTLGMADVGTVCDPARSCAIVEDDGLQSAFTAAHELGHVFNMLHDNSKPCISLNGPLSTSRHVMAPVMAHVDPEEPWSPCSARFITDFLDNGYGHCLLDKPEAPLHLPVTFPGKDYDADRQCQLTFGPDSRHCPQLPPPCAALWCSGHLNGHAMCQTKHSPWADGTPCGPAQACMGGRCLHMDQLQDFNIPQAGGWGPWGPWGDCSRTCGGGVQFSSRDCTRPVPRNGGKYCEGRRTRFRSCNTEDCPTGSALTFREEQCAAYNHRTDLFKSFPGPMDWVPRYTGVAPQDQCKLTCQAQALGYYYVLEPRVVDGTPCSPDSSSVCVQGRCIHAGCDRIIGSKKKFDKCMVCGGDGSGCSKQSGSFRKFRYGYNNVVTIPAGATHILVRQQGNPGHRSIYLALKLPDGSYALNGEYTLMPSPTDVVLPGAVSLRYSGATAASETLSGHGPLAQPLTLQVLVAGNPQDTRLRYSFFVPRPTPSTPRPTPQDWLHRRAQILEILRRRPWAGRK

pentosan polysulfate [PPS]
aggrecanase activity of ADAMTS4 (ADAMTS4 [1]): inhibits | mRNA levels of MT4-MMP (MT4-MMP mRNA): decreased | aggrecanase activity of ADAMTS5 (ADAMTS5): inhibits | level of ADAMTS4 in the protein fractions (ADAMTS4 [2]): not altered
